Drawing on ChEMBL document CHEMBL3886937, “Pyrimidodiazepinone compound” (2016), this text covers IC50 for 17 compounds.

A short description of the experiment: [3H]-Gabapentin Binding Assay: A test compound (20 μL) diluted to 5 times of the final concentration with Binding buffer, [3H]-gabapentin diluted to 100 nmol/L with binding buffer [20 μL (final concentration 20 nmol/L)], and the rat cerebral cortex membrane fraction (60 μL; 12 μg membrane fraction) obtained in the (1) above were added to each well of a 96-well round-bottom plate. After being sufficiently mixed, these were allowed to react at room temperature for 1 hour. After the reaction, the reaction sample was suction filtered using a filter plate with 50 μL/well of 0.3 vol % polyethyleneimine added, and a cell harvester. The filter was then washed with ice-cooled Wash buffer (100 mmol/L NaCl, 0.1 w/v % BSA). After being washed, the filter plate was dried, and a scintillation cocktail (MicroScint-20, purchased from PerkinElmer) was added (50 μL/well), and the radioactivity on the filter was measured. The radioactivity obtained in the absence of the test compound was measured as total binding amount, and the radioactivity obtained by addition of an unlabeled gabapentin (final concentration 100 mmol/L) as a test compound was measured as non-specific binding amount.
On to `CCNc1ncc2c(n1)N1CCC[C@H]1CN(c1scc3c(=O)n(C)cnc13)C2=O`, for which the IC50 was 3 nM.
Consider `CCNc1ncc2c(n1)N1CCC[C@H]1CN(c1cccc3c(=O)n(C)ccc13)C2=O`, for which the half-inhibitory concentration (IC50) came out at 5 nM.
With `CNc1ncc2c(n1)N1CCC[C@H]1CN(c1cccc3c(=O)n(CCCN(C)C)cnc13)C2=O`, the 50% inhibitory concentration (IC50) turned out to be 1.2 nM.
To `CNc1ncc2c(n1)N1CCC[C@H]1CN(c1c[nH]c3ncn(C)c(=O)c13)C2=O` belongs 3.6 nM; to `CCNc1ncc2c(n1)N1CCC[C@H]1CN(c1cccc3c(=O)n(CCF)c(C)nc13)C2=O`, 4.8 nM; to `CNc1ncc2c(n1)N1CCC[C@H]1CN(c1cccn3c(=O)c(C)c(C)nc13)C2=O`, 4.7 nM.
To `CCCNc1ncc2c(n1)N1CCC[C@H]1CN(c1cccc3c(=O)n(C)cnc13)C2=O` belongs 3 nM.
For `CCNc1ncc2c(n1)N1CCC[C@H]1CN(c1cccc3ncn(C)c(=O)c13)C2=O`, the IC50 came out at 3.9 nM.
For the compound `CCNc1ncc2c(n1)N1CCC[C@H]1CN(c1c[nH]c3ncn(C)c(=O)c13)C2=O`, the IC50 was 2.6 nM.
Turning to `CCNc1ncc2c(n1)N1CCC[C@H]1CN(c1cccc3c(=O)n(CCCN(C)C)cnc13)C2=O`, the half-inhibitory concentration (IC50) came out at 0.7 nM.
On to `CCNc1ncc2c(n1)N1CCC[C@H]1CN(c1cccc3c(=O)n(C)c(COC)nc13)C2=O`, for which the half-maximal inhibitory concentration (IC50) was found to be 3.8 nM.
As for `CCn1cnc2c(N3C[C@@H]4CCCN4c4nc(NC)ncc4C3=O)cccc2c1=O`, the figure is 4 nM; as for `CNc1ncc2c(n1)N1CCC[C@H]1CN(c1cccc3c(=O)n(C)cnc13)C2=O`, 2.6 nM.
For the compound `CNc1ncc2c(n1)N1CCC[C@H]1CN(c1cncc3c(=O)n(C)cnc13)C2=O`, the IC50 is 4.1 nM.
In the case of `CCNc1ncc2c(n1)N1CCC[C@H]1CN(c1cccn3c(=O)c(C)c(C)nc13)C2=O`, the IC50 worked out at 2.7 nM.
With `CCNc1ncc2c(n1)N1CCC[C@H]1CN(c1cccc3c(=O)n(C)c(C)nc13)C2=O`, the IC50 amounted to 2.6 nM.
As to `CCNc1ncc2c(n1)N1CCC[C@H]1CN(c1cccn3c(=O)cc(C)nc13)C2=O`, the IC50 came out at 5.2 nM.

In general, IC50 refers to the concentration that inhibits the measured activity by half.
